Results published in PubChem BioAssay (NCI).
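All cell lines were grown in 96-well plates and treated with compound for 48 hours. Definition used: TGI = concentration required for complete inhibition of growth.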

The compounds below were run on HT29 colon (assay: DTP human tumour cell line panel, 48 h).

Row | SMILES | TGI
1 | O=[N+]([O-])c1ccc(C2=Nn3cnnc3SC2)o1 | 28.2 µM
2 | S=C1NC2(CCCCCC2)NN1c1ccccc1 | > 100 µM
3 | Cc1ccc(Cc2c(=O)[nH]nc3ccccc23)cc1 | > 100 µM
4 | COc1cccc(/C=C/c2cc(OC)c(OC)c(OC)c2)c1 | > 100 µM
5 | CO/N=C/c1cc(OC)c(OC)c(OC)c1 | > 100 µM
6 | CN(C)c1ccc(C(C=C2c3ccccc3Sc3ccccc32)=C(C#N)C#N)cc1 | > 100 µM
7 | CN(C)/C=N/c1nc2c(ncn2C2OC(CO)C(O)C2O)c(=O)[nH]1 (centres undefined) | > 100 µM

What follows are compounds tested on MCF7 breast (assay: DTP human tumour cell line panel, 48 h).

Row | SMILES | TGI
8 | S=C1NC2(CCCCCC2)NN1c1ccccc1 | > 100 µM

The compounds below were run on HL-60(TB) leukemia (assay: DTP human tumour cell line panel, 48 h).

Row | SMILES | TGI
9 | O=[N+]([O-])c1ccc(C2=Nn3cnnc3SC2)o1 | 37.6 µM
10 | S=C1NC2(CCCCCC2)NN1c1ccccc1 | 3.64 µM
11 | CO/N=C/c1cc(OC)c(OC)c(OC)c1 | > 100 µM
12 | CN(C)c1ccc(C(C=C2c3ccccc3Sc3ccccc32)=C(C#N)C#N)cc1 | > 100 µM
13 | CN(C)/C=N/c1nc2c(ncn2C2OC(CO)C(O)C2O)c(=O)[nH]1 (centres undefined) | > 100 µM

These compounds were tested on SNB-19 CNS (assay: DTP human tumour cell line panel, 48 h).

Row | SMILES | TGI
14 | O=[N+]([O-])c1ccc(C2=Nn3cnnc3SC2)o1 | 79 µM
15 | S=C1NC2(CCCCCC2)NN1c1ccccc1 | > 100 µM
16 | Cc1ccc(Cc2c(=O)[nH]nc3ccccc23)cc1 | > 100 µM
17 | COc1cccc(/C=C/c2cc(OC)c(OC)c(OC)c2)c1 | > 100 µM
18 | CO/N=C/c1cc(OC)c(OC)c(OC)c1 | > 100 µM
19 | CN(C)c1ccc(C(C=C2c3ccccc3Sc3ccccc32)=C(C#N)C#N)cc1 | > 100 µM
20 | CN(C)/C=N/c1nc2c(ncn2C2OC(CO)C(O)C2O)c(=O)[nH]1 (centres undefined) | > 100 µM

What follows are compounds tested on T-47D breast (assay: DTP human tumour cell line panel, 48 h).

Row | SMILES | TGI
21 | S=C1NC2(CCCCCC2)NN1c1ccccc1 | > 100 µM

The compounds below were run on RXF-631 renal (assay: DTP human tumour cell line panel, 48 h).

Row | SMILES | TGI
22 | O=[N+]([O-])c1ccc(C2=Nn3cnnc3SC2)o1 | 28.1 µM
23 | S=C1NC2(CCCCCC2)NN1c1ccccc1 | > 100 µM
24 | Cc1ccc(Cc2c(=O)[nH]nc3ccccc23)cc1 | > 100 µM
25 | COc1cccc(/C=C/c2cc(OC)c(OC)c(OC)c2)c1 | > 100 µM
26 | CO/N=C/c1cc(OC)c(OC)c(OC)c1 | > 100 µM
27 | CN(C)c1ccc(C(C=C2c3ccccc3Sc3ccccc32)=C(C#N)C#N)cc1 | > 100 µM
28 | CN(C)/C=N/c1nc2c(ncn2C2OC(CO)C(O)C2O)c(=O)[nH]1 (centres undefined) | > 100 µM

What follows are compounds tested on NCI-H460 lung (assay: DTP human tumour cell line panel, 48 h).

Row | SMILES | TGI
29 | O=[N+]([O-])c1ccc(C2=Nn3cnnc3SC2)o1 | 26.3 µM
30 | S=C1NC2(CCCCCC2)NN1c1ccccc1 | > 100 µM
31 | Cc1ccc(Cc2c(=O)[nH]nc3ccccc23)cc1 | > 100 µM
32 | COc1cccc(/C=C/c2cc(OC)c(OC)c(OC)c2)c1 | > 100 µM
33 | CO/N=C/c1cc(OC)c(OC)c(OC)c1 | > 100 µM
34 | CN(C)c1ccc(C(C=C2c3ccccc3Sc3ccccc32)=C(C#N)C#N)cc1 | > 100 µM
35 | CN(C)/C=N/c1nc2c(ncn2C2OC(CO)C(O)C2O)c(=O)[nH]1 (centres undefined) | > 100 µM

The compounds below were run on PC-3 prostate (assay: DTP human tumour cell line panel, 48 h).

Row | SMILES | TGI
36 | S=C1NC2(CCCCCC2)NN1c1ccccc1 | > 100 µM

What follows are compounds tested on SN12C renal (assay: DTP human tumour cell line panel, 48 h).

Row | SMILES | TGI
37 | O=[N+]([O-])c1ccc(C2=Nn3cnnc3SC2)o1 | 30.1 µM
38 | S=C1NC2(CCCCCC2)NN1c1ccccc1 | > 100 µM
39 | Cc1ccc(Cc2c(=O)[nH]nc3ccccc23)cc1 | > 100 µM
40 | COc1cccc(/C=C/c2cc(OC)c(OC)c(OC)c2)c1 | > 100 µM
41 | CO/N=C/c1cc(OC)c(OC)c(OC)c1 | > 100 µM
42 | CN(C)c1ccc(C(C=C2c3ccccc3Sc3ccccc32)=C(C#N)C#N)cc1 | > 100 µM
43 | CN(C)/C=N/c1nc2c(ncn2C2OC(CO)C(O)C2O)c(=O)[nH]1 (centres undefined) | > 100 µM

The compounds below were run on MDA-MB-435 (assay: DTP human tumour cell line panel, 48 h).

Row | SMILES | TGI
44 | S=C1NC2(CCCCCC2)NN1c1ccccc1 | > 100 µM

These compounds were tested on NCI-H23 lung (assay: DTP human tumour cell line panel, 48 h).

Row | SMILES | TGI
45 | S=C1NC2(CCCCCC2)NN1c1ccccc1 | > 100 µM
46 | Cc1ccc(Cc2c(=O)[nH]nc3ccccc23)cc1 | > 100 µM
47 | COc1cccc(/C=C/c2cc(OC)c(OC)c(OC)c2)c1 | > 100 µM
48 | CO/N=C/c1cc(OC)c(OC)c(OC)c1 | > 100 µM
49 | CN(C)c1ccc(C(C=C2c3ccccc3Sc3ccccc32)=C(C#N)C#N)cc1 | > 100 µM
50 | CN(C)/C=N/c1nc2c(ncn2C2OC(CO)C(O)C2O)c(=O)[nH]1 (centres undefined) | > 100 µM

What follows are compounds tested on SNB-75 CNS (assay: DTP human tumour cell line panel, 48 h).

Row | SMILES | TGI
51 | O=[N+]([O-])c1ccc(C2=Nn3cnnc3SC2)o1 | 51.7 µM
52 | S=C1NC2(CCCCCC2)NN1c1ccccc1 | > 100 µM
53 | Cc1ccc(Cc2c(=O)[nH]nc3ccccc23)cc1 | > 100 µM
54 | COc1cccc(/C=C/c2cc(OC)c(OC)c(OC)c2)c1 | 60.1 µM
55 | CO/N=C/c1cc(OC)c(OC)c(OC)c1 | > 100 µM
56 | CN(C)c1ccc(C(C=C2c3ccccc3Sc3ccccc32)=C(C#N)C#N)cc1 | 89.9 µM
57 | CN(C)/C=N/c1nc2c(ncn2C2OC(CO)C(O)C2O)c(=O)[nH]1 (centres undefined) | > 100 µM

Each compound was assayed on XF 498 CNS (assay: DTP human tumour cell line panel, 48 h).

Row | SMILES | TGI
58 | O=[N+]([O-])c1ccc(C2=Nn3cnnc3SC2)o1 | 30.2 µM
59 | Cc1ccc(Cc2c(=O)[nH]nc3ccccc23)cc1 | > 100 µM
60 | COc1cccc(/C=C/c2cc(OC)c(OC)c(OC)c2)c1 | > 100 µM
61 | CO/N=C/c1cc(OC)c(OC)c(OC)c1 | > 100 µM
62 | CN(C)c1ccc(C(C=C2c3ccccc3Sc3ccccc32)=C(C#N)C#N)cc1 | > 100 µM
63 | CN(C)/C=N/c1nc2c(ncn2C2OC(CO)C(O)C2O)c(=O)[nH]1 (centres undefined) | > 100 µM

These compounds were tested on SF-268 CNS (assay: DTP human tumour cell line panel, 48 h).

Row | SMILES | TGI
64 | O=[N+]([O-])c1ccc(C2=Nn3cnnc3SC2)o1 | 58.2 µM
65 | S=C1NC2(CCCCCC2)NN1c1ccccc1 | > 100 µM
66 | Cc1ccc(Cc2c(=O)[nH]nc3ccccc23)cc1 | > 100 µM
67 | COc1cccc(/C=C/c2cc(OC)c(OC)c(OC)c2)c1 | > 100 µM
68 | CO/N=C/c1cc(OC)c(OC)c(OC)c1 | > 100 µM
69 | CN(C)c1ccc(C(C=C2c3ccccc3Sc3ccccc32)=C(C#N)C#N)cc1 | > 100 µM
70 | CN(C)/C=N/c1nc2c(ncn2C2OC(CO)C(O)C2O)c(=O)[nH]1 (centres undefined) | > 100 µM

These compounds were tested on NCI/ADR-RES ovarian (assay: DTP human tumour cell line panel, 48 h).

Row | SMILES | TGI
71 | S=C1NC2(CCCCCC2)NN1c1ccccc1 | > 100 µM

Each compound was assayed on COLO 205 colon (assay: DTP human tumour cell line panel, 48 h).

Row | SMILES | TGI
72 | S=C1NC2(CCCCCC2)NN1c1ccccc1 | 0.431 µM
73 | Cc1ccc(Cc2c(=O)[nH]nc3ccccc23)cc1 | > 100 µM
74 | COc1cccc(/C=C/c2cc(OC)c(OC)c(OC)c2)c1 | > 100 µM
75 | CO/N=C/c1cc(OC)c(OC)c(OC)c1 | > 100 µM
76 | CN(C)c1ccc(C(C=C2c3ccccc3Sc3ccccc32)=C(C#N)C#N)cc1 | > 100 µM
77 | CN(C)/C=N/c1nc2c(ncn2C2OC(CO)C(O)C2O)c(=O)[nH]1 (centres undefined) | > 100 µM

These compounds were tested on UO-31 renal (assay: DTP human tumour cell line panel, 48 h).

Row | SMILES | TGI
78 | O=[N+]([O-])c1ccc(C2=Nn3cnnc3SC2)o1 | 36.5 µM
79 | S=C1NC2(CCCCCC2)NN1c1ccccc1 | > 100 µM
80 | Cc1ccc(Cc2c(=O)[nH]nc3ccccc23)cc1 | > 100 µM
81 | COc1cccc(/C=C/c2cc(OC)c(OC)c(OC)c2)c1 | > 100 µM
82 | CO/N=C/c1cc(OC)c(OC)c(OC)c1 | > 100 µM
83 | CN(C)c1ccc(C(C=C2c3ccccc3Sc3ccccc32)=C(C#N)C#N)cc1 | > 100 µM
84 | CN(C)/C=N/c1nc2c(ncn2C2OC(CO)C(O)C2O)c(=O)[nH]1 (centres undefined) | > 100 µM

The compounds below were run on SK-OV-3 ovarian (assay: DTP human tumour cell line panel, 48 h).

Row | SMILES | TGI
85 | S=C1NC2(CCCCCC2)NN1c1ccccc1 | > 100 µM
86 | Cc1ccc(Cc2c(=O)[nH]nc3ccccc23)cc1 | > 100 µM
87 | COc1cccc(/C=C/c2cc(OC)c(OC)c(OC)c2)c1 | > 100 µM
88 | CO/N=C/c1cc(OC)c(OC)c(OC)c1 | > 100 µM
89 | CN(C)c1ccc(C(C=C2c3ccccc3Sc3ccccc32)=C(C#N)C#N)cc1 | > 100 µM
90 | CN(C)/C=N/c1nc2c(ncn2C2OC(CO)C(O)C2O)c(=O)[nH]1 (centres undefined) | > 100 µM

These compounds were tested on A498 renal (assay: DTP human tumour cell line panel, 48 h).

Row | SMILES | TGI
91 | O=[N+]([O-])c1ccc(C2=Nn3cnnc3SC2)o1 | 32.3 µM
92 | S=C1NC2(CCCCCC2)NN1c1ccccc1 | > 100 µM
93 | Cc1ccc(Cc2c(=O)[nH]nc3ccccc23)cc1 | > 100 µM
94 | COc1cccc(/C=C/c2cc(OC)c(OC)c(OC)c2)c1 | > 100 µM
